According to patent US20100273876A1, “ANTIBACTERIAL FORMULATION COMPRISING A DIALKYL SULPHOSUCCINATE AND A CARBANILIDE ANTIBACTERIAL AGENT” (priority 2007, published 2010):

Key:
Assay in all cases: (S)DDA disc diffusion
Assay type in all cases: cell-based, Propionibacterium acnes
[1] = tested on: P. acnes PRP-053
Protocol: (§1) The propionibacteria were cultured and maintained on Wilkins-Chalgren Anaerobe Medium (agar and broth) at pH 6.0; all cultures were incubated anaerobically at 37° C. for 72 hours.
(§2) A sterile paper disc was impregnated with a sample of the test compound in a suitable solvent and 30 minutes allowed for the solvents to evaporate (where possible). The disc was then placed on an agar plate onto which the test micro-organism had been inoculated. The plate was then incubated under the conditions described above, following which it was examined visually for signs of microbial growth. If the test compound had antimicrobial activity, a circular zone of no growth would be obtained around the disc. The diameter of this zone of “inhibition” was measured using a ProtoCOL™ automated zone sizer (Synbiosis, Cambridge, UK). In general, a greater diameter and/or area of the zone of inhibition indicates a greater antimicrobial activity in the relevant test compound, although other factors such as test compound mobility through the agar gel may also influence the result.
(§3) Two test a compounds A and B were placed on a single paper disc and the above described DDA procedure repeated. An increase in diameter of the zone of inhibition, compared to the greater of the zone diameters for the two compounds individually, was taken to indicate potential antimicrobial synergy. In practical terms, an increase of greater than 5 mm could be treated as significant.
(§4) Both the DDA and the SDDA test may be carried out using an agar gel supplemented with lipid and/or salt to simulate some of the major components present in human skin and to assess whether these substances might reduce the antimicrobial activity observed for the test compound. Performance under these conditions can provide a more reliable indication of activity on topical application. The supplements used in Examples 1, 11, 12 and 13 below were lipid (either Tween™ 80 at 1% v/v (Example 1) or triolein at 1% v/v (Examples 11, 12 and 13) and sodium chloride (100 mM).

[2] = tested on: P. acnes PRP-010
Protocol: as §1, §2, §3, §4

[3] = tested on: P. acnes PRP-026
Protocol: as §1, §2, §3, §4

[4] = tested on: P. acnes PRP-101
Protocol: as §1, §2, §3, §4

[5] = tested on: P. acnes PRP-059
Protocol: as §1, §2, §3, §4

[6] = tested on: P. acnes PRP-004
Protocol: as §1, §2, §3, §4

[7] = tested on: P. acnes PRP-046
Protocol: as §1, §2, §3, §4

[8] = tested on: P. acnes PRP-023
Protocol: as §1, §2, §3, §4

[9] = tested on: P. acnes PRP-008
Protocol: as §1, §2, §3, §4

[10] = tested on: P. acnes PRP-003
Protocol: as §1, §2, §3, §4

[11] = tested on: P. acnes PRP-002
Protocol: as §1, §2, §3, §4

[12] = tested on: P. acnes PRP-017
Protocol: as §1, §2, §3, §4

[13] = tested on: P. acnes PRP-102
Protocol: as §1, §2, §3, §4

[14] = tested on: P. acnes PRP-039; details: for DDA: P. acnes PRP-039 (Tet/MLS), 200 μg TCC or 50 μg DOSS per disc
Protocol: as §1, §2, §3, §4

[15] = tested on: P. acnes PRP-068
Protocol: as §1, §2, §3, §4

[16] = tested on: P. acnes PRP-007
Protocol: as §1, §2, §3, §4

[17] = P. acnes PRP-053 (Tet/MLS), 200 μg TCC or 50 μg DOSS per disc
[18] = P. acnes PRP-010 (MLSK), 200 μg TCC or 50 μg DOSS per disc
[19] = P. acnes PRP-026 (MLS), 200 μg TCC or 50 μg DOSS per disc
[20] = P. acnes PRP-101 (Tet/MLS), 200 μg TCC or 50 μg DOSS per disc
[21] = P. acnes PRP-059 (MLS), 200 μg TCC or 50 μg DOSS per disc
[22] = P. acnes PRP-004 (Tet), 200 μg TCC or 50 μg DOSS per disc
[23] = P. acnes PRP-046 (resistance None), 200 μg TCC or 50 μg DOSS per disc
[24] = P. acnes PRP-023 (MLSK), 200 μg TCC or 50 μg DOSS per disc
[25] = P. acnes PRP-008 (Clin), 200 μg TCC or 50 μg DOSS per disc
[26] = P. acnes PRP-003 (Tet), 200 μg TCC or 50 μg DOSS per disc
[27] = P. acnes PRP-002 (Tet/MLS), 200 μg TCC or 50 μg DOSS per disc
[28] = P. acnes PRP-017 (MLS), 200 μg TCC or 50 μg DOSS per disc
[29] = P. acnes PRP-102 (Tet/MLS), 200 μg TCC or 50 μg DOSS per disc
[30] = P. acnes PRP-068 (Ery), 200 μg TCC or 50 μg DOSS per disc
[31] = P. acnes PRP-007 (Clin), 200 μg TCC or 50 μg DOSS per disc

dioctyl sodium sulphosuccinate [DOSS] was tested, and the DDA [1, 17] was 17.78 mm, the DDA ([1]; P. acnes PRP-053, 200 μg per disc) was 49.49 mm and the “DDA + salt” value ([1]; P. acnes PRP-053, 200 μg per disc, sodium chloride 100 mM) was 44.82 mm. For the same compound, the “DDA + lipid” value ([1]; P. acnes PRP-053, 200 μg per disc, triolein 1% v/v) was 42.02 mm, the DDA [2, 18] was 26.82 mm and the DDA ([2]; P. acnes PRP-010, 200 μg per disc) was 46.69 mm. The “DDA + salt” value ([2]; P. acnes PRP-010, 200 μg per disc, sodium chloride 100 mM) was 46.07 mm, the “DDA + lipid” value ([2]; P. acnes PRP-010, 200 μg per disc, triolein 1% v/v) was 39.84 mm and the DDA [3, 19] was 28.26 mm. For the same compound, the DDA ([3]; P. acnes PRP-026, 200 μg per disc) was 49.81 mm, the “DDA + salt” value ([3]; P. acnes PRP-026, 200 μg per disc, sodium chloride 100 mM) was 48.25 mm and the “DDA + lipid” value ([3]; P. acnes PRP-026, 200 μg per disc, triolein 1% v/v) was 43.89 mm. For the same compound, the DDA [4, 20] was 14.59 mm, the DDA ([4]; P. acnes PRP-101, 200 μg per disc) was 41.40 mm and the “DDA + lipid” value ([4]; P. acnes PRP-101, 200 μg per disc, triolein 1% v/v) was 40.47 mm. For the same compound, the DDA [5, 21] was 11.82 mm, the DDA ([5]; P. acnes PRP-059, 200 μg per disc) was 43.58 mm and the “DDA + salt” value ([5]; P. acnes PRP-059, 200 μg per disc, sodium chloride 100 mM) was 44.20 mm. The “DDA + lipid” value ([5]; P. acnes PRP-059, 200 μg per disc, triolein 1% v/v) was 44.82 mm, the DDA [6, 22] was 26.62 mm and the DDA ([6]; P. acnes PRP-004, 200 μg per disc) was 48.56 mm. For the same compound, the “DDA + salt” value ([6]; P. acnes PRP-004, 200 μg per disc, sodium chloride 100 mM) was 43.27 mm, the “DDA + lipid” value ([6]; P. acnes PRP-004, 200 μg per disc, triolein 1% v/v) was 46.07 mm and the DDA [7, 23] was 25.08 mm. For the same compound, the DDA ([7]; P. acnes PRP-046, 200 μg per disc) was 44.51 mm, the “DDA + salt” value ([7]; P. acnes PRP-046, 200 μg per disc, sodium chloride 100 mM) was 47.00 mm and the “DDA + lipid” value ([7]; P. acnes PRP-046, 200 μg per disc, triolein 1% v/v) was 41.09 mm. The DDA [8, 24] was 26.41 mm, the DDA ([8]; P. acnes PRP-023, 200 μg per disc) was 49.49 mm and the “DDA + salt” value ([8]; P. acnes PRP-023, 200 μg per disc, sodium chloride 100 mM) was 47.32 mm. The “DDA + lipid” value ([8]; P. acnes PRP-023, 200 μg per disc, triolein 1% v/v) was 46.38 mm, the DDA [9, 25] was 24.87 mm and the DDA ([9]; P. acnes PRP-008, 200 μg per disc) was 48.25 mm. For the same compound, the “DDA + salt” value ([9]; P. acnes PRP-008, 200 μg per disc, sodium chloride 100 mM) was 48.56 mm, the “DDA + lipid” value ([9]; P. acnes PRP-008, 200 μg per disc, triolein 1% v/v) was 43.58 mm and the DDA [10, 26] was 27.95 mm. The DDA ([10]; P. acnes PRP-003, 200 μg per disc) was 42.96 mm, the “DDA + salt” value ([10]; P. acnes PRP-003, 200 μg per disc, sodium chloride 100 mM) was 46.69 mm and the “DDA + lipid” value ([10]; P. acnes PRP-003, 200 μg per disc, triolein 1% v/v) was 43.58 mm. For the same compound, the DDA [11, 27] was 31.76 mm, the DDA ([11]; P. acnes PRP-002, 200 μg per disc) was 49.49 mm and the “DDA + salt” value ([11]; P. acnes PRP-002, 200 μg per disc, sodium chloride 100 mM) was 51.36 mm. For the same compound, the “DDA + lipid” value ([11]; P. acnes PRP-002, 200 μg per disc, triolein 1% v/v) was 48.25 mm, the DDA [12, 28] was 28.98 mm and the DDA ([12]; P. acnes PRP-017, 200 μg per disc) was 47.94 mm. For the same compound, the “DDA + salt” value ([12]; P. acnes PRP-017, 200 μg per disc, sodium chloride 100 mM) was 47.63 mm, the “DDA + lipid” value ([12]; P. acnes PRP-017, 200 μg per disc, triolein 1% v/v) was 44.82 mm and the DDA [13, 29] was 22.81 mm. The DDA ([13]; P. acnes PRP-102, 200 μg per disc) was 44.82 mm, the “DDA + salt” value ([13]; P. acnes PRP-102, 200 μg per disc, sodium chloride 100 mM) was 41.71 mm and the “DDA + lipid” value ([13]; P. acnes PRP-102, 200 μg per disc, triolein 1% v/v) was 37.98 mm. For the same compound, the DDA [14] was 23.02 mm, the “DDA + salt” value ([14]; P. acnes PRP-039, 200 μg per disc, sodium chloride 100 mM) was 46.38 mm and the DDA [15, 30] was 25.59 mm. For the same compound, the DDA ([15]; P. acnes PRP-068, 200 μg per disc) was 48.87 mm, the “DDA + salt” value ([15]; P. acnes PRP-068, 200 μg per disc, sodium chloride 100 mM) was 46.69 mm and the “DDA + lipid” value ([15]; P. acnes PRP-068, 200 μg per disc, triolein 1% v/v) was 44.51 mm. The DDA [16, 31] was 21.38 mm, the DDA ([16]; P. acnes PRP-007, 200 μg per disc) was 47.32 mm and the “DDA + salt” value ([16]; P. acnes PRP-007, 200 μg per disc, sodium chloride 100 mM) was 42.96 mm. For the same compound, the “DDA + lipid” value ([16]; P. acnes PRP-007, 200 μg per disc, triolein 1% v/v) was 44.82 mm.
For O=C(Nc1ccc(Cl)cc1)Nc1ccc(Cl)c(Cl)c1 [TCC, N-(4-chlorophenyl)-N′-(3,4-dichlorophenyl) urea], the DDA [1, 17] was 21.58 mm, the DDA [2, 18] was 22.81 mm and the DDA [3, 19] was 22.71 mm. For the same compound, the DDA [4, 20] was 16.75 mm, the DDA [5, 21] was 19.73 mm and the DDA [6, 22] was 15.42 mm. It also gave a DDA [7, 23] of 20.25 mm, a DDA [8, 24] of 21.27 mm and a DDA [9, 25] of 14.80 mm. The DDA [10, 26] was 23.64 mm, the DDA [11, 27] was 34.22 mm and the DDA [12, 28] was 18.81 mm. For the same compound, the DDA [13, 29] was 14.59 mm, the DDA [14] was 18.91 mm and the DDA [15, 30] was 22.30 mm. It also gave a DDA [16, 31] of 13.87 mm.
